Source: paper PMC10720285 (ACS Omega, 2023)

Legend:
Format in all cases: cell-based
A549 = test: MTT antiproliferative assay, A549; conditions: Homo sapiens, A549, 72 h, read-out: IC50 values A549
HepG2 = test: MTT antiproliferative assay, HepG2; conditions: Homo sapiens, HepG2, 72 h, read-out: IC50 values HepG2
MCF-10A = test: MTT cytotoxicity assay, noncancerous MCF-10A; conditions: Homo sapiens, 72 h, read-out: IC50 values MCF-10A
MCF7 = test: MTT antiproliferative assay, MCF7; conditions: Homo sapiens, MCF7, 72 h, read-out: IC50 values MCF7

Which IC50 (A549) does the source give for `Nc1c2c(nc(=S)n1-c1ccccc1)OC1=C(C(=O)CCC1)C2c1cccs1` (centres unmarked) [Compound 7, 4-Amino-3-phenyl-5-(thiophen-2-yl)-2-thioxo-2,3,5,7,8,9-hexahydro-6H-chromeno[2,3-d]pyrimidin-6-one] here?
The IC50 was 7.28 ± 1.34 µM.

And the IC50 (HepG2)?
Its IC50 is 6.26 ± 0.32 µM.

What about the IC50 (MCF-10A) of the same molecule?
Its IC50 is 78.5 ± 2.05 µM.

What about the IC50 (MCF7) of the same molecule?
Its IC50 is 5.6 ± 1.12 µM.

With `Nc1nc(=S)[nH]c2c1C(c1cccs1)C1=C(CCCC1=O)O2` (centres unmarked) [Compound 4b, 4-Amino-5-(thiophen-2-yl)-2-thioxo-1,2,5,7,8,9-hexahydro-6H-chromeno[2,3-d]pyrimidin-6-one] as the molecule, how does the IC50 (A549) read?
Its IC50 is 17.1 ± 3.17 µM.

What about the IC50 (HepG2) of the same molecule?
Its IC50 is 17.8 ± 2.04 µM.

And the IC50 (MCF-10A)?
Its IC50 is 58.1 ± 2.34 µM.

And the IC50 (MCF7)?
Its IC50 is 18.8 ± 3.19 µM.

Which IC50 (A549) does the source give for `CCOC(=O)NC1=C(C#N)C(c2cccs2)C2=C(CCCC2=O)O1` (centres unmarked) [Compound 14, Ethyl (3-Cyano-5-oxo-4-(thiophen-2-yl)-5,6,7,8-tetrahydro-4H-chromen-2-yl)carbamate] here?
Its IC50 is 40.4 ± 3.15 µM.

What about the IC50 (HepG2) of the same molecule?
The IC50 was 37.2 ± 1.45 µM.

What about the IC50 (MCF7) of the same molecule?
The IC50 was 39.3 ± 3.12 µM.

`N=c1c2c(ncn1N)OC1=C(C(=O)CCC1)C2c1cccs1` (centres unmarked) [Compound 3, 3-Amino-4-imino-5-(thiophen-2-yl)-3,4,5,7,8,9-hexahydro-6H-chromeno[2,3-d]pyrimidin-6-one] was tested. Which IC50 (A549) did it give?
The IC50 was 1.87 ± 0.32 µM.

And the IC50 (HepG2)?
The IC50 was 2.02 ± 0.15 µM.

What about the IC50 (MCF-10A) of the same molecule?
Its IC50 is 77.3 ± 3.22 µM.

What about the IC50 (MCF7) of the same molecule?
The IC50 was 1.61 ± 0.12 µM.

With `Nc1nc(=O)[nH]c2c1C(c1cccs1)C1=C(CCCC1=O)O2` (centres unmarked) [Compound 4a, 4-Amino-5-(thiophen-2-yl)-5,7,8,9-tetrahydro-2H-chromeno[2,3-d]pyrimidine-2,6(1H)-dione] as the molecule, how does the IC50 (A549) read?
Its IC50 is 14.9 ± 3.12 µM.

And the IC50 (HepG2)?
The IC50 was 13.7 ± 3.81 µM.

What about the IC50 (MCF-10A) of the same molecule?
The IC50 was 60.1 ± 2.31 µM.

What about the IC50 (MCF7) of the same molecule?
The IC50 was 14.3 ± 2.05 µM.

What does the source list for `N#CC1=C(N)OC2=C(C(=O)CCC2)C1c1cccs1` (centres unmarked) [Compound 1, 2-Amino-5-oxo-4-(thiophen-2-yl)-5,6,7,8-tetrahydro-4H-chromene-3-carbonitrile]?
IC50 (A549): 36.3 ± 3.37 µM; IC50 (HepG2): 33.9 ± 3.34 µM; IC50 (MCF7): 39.8 ± 3.35 µM

How did the IC50 (A549) turn out when `CCO/C=N/C1=C(C#N)C(c2cccs2)C2=C(CCCC2=O)O1` (centres unmarked) [Compound 2, Ethyl (E)-N-(3-Cyano-5-oxo-4-(thiophen-2-yl)-5,6,7,8-tetrahydro-4H-chromen-2-yl)formimidate] was run?
The IC50 was 29.9 ± 3.05 µM.

What about the IC50 (HepG2) of the same molecule?
The IC50 was 27.3 ± 3.87 µM.

And the IC50 (MCF7)?
Its IC50 is 29.4 ± 2.35 µM.

For `CC(=O)N(C(C)=O)C1=C(C#N)C(c2cccs2)C2=C(CCCC2=O)O1` (centres unmarked) [Compound 17, N-Acetyl-N-(3-cyano-5-oxo-4-(thiophen-2-yl)-5,6,7,8-tetrahydro-4H-chromen-2-yl)acetamide], which IC50 (A549) is on record?
The IC50 was 24.3 ± 3.88 µM.

What about the IC50 (HepG2) of the same molecule?
Its IC50 is 25.3 ± 1.34 µM.

What about the IC50 (MCF7) of the same molecule?
Its IC50 is 29 ± 2.38 µM.

Which results are given for `NC(=S)Cc1nc(N)c2c(n1)OC1=C(C(=O)CCC1)C2c1cccs1` (centres unmarked) [Compound 13, 2-(4-Amino-6-oxo-5-(thiophen-2-yl)-6,7,8,9-tetrahydro-5H-chromeno[2,3-d]pyrimidin-2-yl)ethanethioamide]?
IC50 (A549): 19.2 ± 3.88 µM; IC50 (HepG2): 19.3 ± 2.07 µM; IC50 (MCF-10A): 51.6 ± 1.98 µM; IC50 (MCF7): 18.1 ± 2.05 µM

Which results are given for `O=C1CCCC2=C1C(c1cccs1)C1=C(NC(=O)N3CCN=C13)O2` (centres unmarked) [Compound 15, 12-(Thiophen-2-yl)-2,6,8,9,10,12-hexahydro-5H-chromeno[3,2-e]imidazo[1,2-c]pyrimidine-5,11(3H)-dione]?
IC50 (A549): 19 ± 3.45 µM; IC50 (HepG2): 19.3 ± 2.06 µM; IC50 (MCF-10A): 52.3 ± 2.18 µM; IC50 (MCF7): 19.3 ± 3.37 µM

`COc1cccc2c1C(=O)c1c(O)c3c(c(O)c1C2=O)C[C@@](O)(C(=O)CO)C[C@@H]3O[C@H]1C[C@H](N)[C@H](O)[C@H](C)O1` [doxorubicin, reference compound] was tested. Which IC50 (A549) did it give?
Its IC50 is 2.22 ± 0.22 µM.

And the IC50 (HepG2)?
Its IC50 is 2.71 ± 0.12 µM.

What about the IC50 (MCF-10A) of the same molecule?
Its IC50 is 87.3 ± 1.47 µM.

What about the IC50 (MCF7) of the same molecule?
The IC50 was 1.68 ± 0.11 µM.

With `N#CCc1nc(N)c2c(n1)OC1=C(C(=O)CCC1)C2c1cccs1` (centres unmarked) [Compound 11, 2-(4-Amino-6-oxo-5-(thiophen-2-yl)-6,7,8,9-tetrahydro-5H-chromeno[2,3-d]pyrimidin-2-yl)acetonitrile] as the molecule, how does the IC50 (A549) read?
The IC50 was 50.7 ± 3.23 µM.

And the IC50 (HepG2)?
The IC50 was 50.5 ± 3.16 µM.

And the IC50 (MCF7)?
Its IC50 is 60.1 ± 3.45 µM.

Which results are given for `N=c1c2c(nc(-c3ccccc3)n1N)OC1=C(C(=O)CCC1)C2c1cccs1` (centres unmarked) [Compound 19, 3-Amino-4-imino-2-phenyl-5-(thiophen-2-yl)-3,4,5,7,8,9-hexahydro-6H-chromeno[2,3-d]pyrimidin-6-one]?
IC50 (A549): 14.3 ± 1.96 µM; IC50 (HepG2): 13.3 ± 1.96 µM; IC50 (MCF-10A): 60.5 ± 1.94 µM; IC50 (MCF7): 15.2 ± 1.65 µM
